US9061079B2, “Peptides that home to atherosclerotic plaques and methods of use” (Sanford-Burnham Medical Research Institute, priority 2011, dated 2015)
Each block holds one molecule with its values, some of them ahead of it. Ends that are not written are not given here. FAM = fluorescein label

Legend:
dermatitis = assay: Treatment of dermatitis in ApoE-null mice on high-fat diet; type: in vivo
Experimental: The effect of LyP-1 treatment on dermatitis was tested. ApoE-null mice that were on a high-fat diet and suffered from severe dermatitis refractory to topical antibiotic treatment were treated with intraperitoneal injections of 200 μg of LyP-1 or control peptide ([…]; SEQ ID NO:6) three times a week for one month (while continuing their diet). The condition of the skin before and after the treatment was recorded in photographs. […] Thus, LyP-1 treatment improves dermatitis.
The effect of LyP-1 on skin dermatitis correlates with reduced in p32 expression and macrophage accumulation. Mice treated as above in FIG. 19 were intravenously injected with 100 μL of 1 mM fluorescein-labeled LyP-1 and peptide was allowed to circulate for 2 hours. Sections of skin biopsies obtained before and after 4 weeks of LyP-1 treatment were analyzed.

atherosclerotic plaques [1] = assay: Homing of intravenously injected FAM-labeled peptides to plaques, fluorescence histology of aorta sections; type: in vivo, mice (ApoE-null); settings: for accumulation in plaque tissue (fluorescence of aorta sections): atherosclerotic ApoE-null mice, 100 μg FAM-peptide intravenously, 1 hour circulation
Description: (§1) Atherosclerotic plaques in male and female mice homozygous for the ApoetmlUnc mutation (ApoE-null mice) (The Jackson Laboratory) were induced by maintaining the mice on a high fat diet (Reddick et al., Arterioscler. Thromb. 14:141-147 (1994); Maeda et al., Atherosclerosis 195:75-82 (2007)) for 6 to 8 months. Healthy aortas were obtained from age-matched C7BL/6 wild-type mice fed on a normal diet. The mice were housed and all procedures performed with the approval and according to standards of the University of California, Santa Barbara and University of California, Davis Institutional Animal Care and Use Committees. To test peptide homing, the mice were injected intravenously via retro-orbital under isoflurane inhalation (isoflurane 2% to 3% vol/vol+2 L/min O2) anesthesia and, when applicable, subsequently perfused with high glucose DMEM through the left ventricle to remove unbound reagent. Tissues were excised and left unfixed or fixed with 4% paraformaldehyde.
Fresh frozen OCT-embedded tissue was sectioned at 7 μm, fixed with ice cold acetone, blocked with 4% serum in PBS, and stained with antibodies. The following antibodies were used: anti-mouse p32 (rabbit polyclonal; (Fogal et al., supra (2008)), CD68 (rat monoclonal, eBioscience), CD11b (rat monoclonal, eBioscience), CD31 (rat monoclonal, eBioscience), podoplanin (hamster monoclonal, eBioscience), LYVE-1 (rat monoclonal, eBioscience), anti-FITC-HRP (goal polyclonal, ACRIS). Purified rat IgG2a K isotype control (BD Pharmingen), normal rabbit IgG (R&D) and normal goat IgG (R&D) were used as controls. The following secondary antibodies from Invitrogen were used for detection: goat anti-rat 488/546, goat anti-rabbit 488/546, donkey anti-goat 488/546, goat anti-hamster 546 and goat anti-rat 647. Primary antibodies were incubated for 1 to 4 hours at room temperature, or at 4° C. to detect cell surface expression. Stained tissue sections were mounted in Vectorshield DAPI-containing mounting media (Vector lab). […]
Tissue sections were examined under a FluoView™ 500 confocal laser-scanning microscope (Olympus) or BX60 fluorescence microscope with MiroFire camera (Olympus). Whole-tissue uptake of fluorescein-labeled peptides following in vivo circulation was imaged using a 530-nm viewing filter, Illumatool light source (Light Tools Research) and recorded with a Canon XTi DSLR camera.
To detect peptide homing to plaques, the distribution of intravenously injected peptides that had been labeled with fluorescein ([…]; FAM) were analyzed. […]
Atherosclerotic mice were injected with 100 μg of FAM-LyP-2 and the probe was allowed to circulate for 1 hour. Following 1 hour of circulation, the aorta was collected and the peptide was detected in tissue sections by fluorescence detection.

plaque macrophages = assay: Effect of treatment on plaque macrophages (FACS of cells released from plaques); type: in vivo, mice (ApoE null); settings: after 4 weeks of treatment, versus control-treated aortas
Experimental: (§2) The effect of LyP-1 treatment on plaque formation was tested. ApoE null mice fed a high-fat diet for 5 months were treated with intraperitoneal injections of 200 μg of LyP-1 or control peptide ([…]; SEQ ID NO:6) three times a week for one month (while continuing their diet).
The effect of LyP-1 treatment on plaque macrophages was tested.

bone marrow cells = assay: Peptide binding ex vivo (FACS); type: cell-based, mice (ApoE); settings: 1 nmol FAM-peptide, 10 min on ice
Experimental: Bone marrow cells were isolated from the tibias and femurs of ApoE mice on high fat diet by flushing high glucose DMEM media (Gibco) using an 18 gauge needle and passed through a 70 μm nylon mesh cell strainer (BD).
(§3) Dead cells were first removed from the cell suspension released from aorta, isolated macrophages from 4T1 tumors and spleen and bone marrow cells using Dead cell removal kit (Miltenyi Biotec). Cells were incubated with 1 nmol of either FAM-LyP-1 or FAM-ARAL (SEQ ID NO:5) for 10 min on ice. After washing, the cell pellets were resuspended in buffer containing 1 μg propidium iodide. Cells positive for FAM and propidium iodide staining were quantified on GUAVA FACS instrument (Millipore) and data were analyzed using FCS Express Version 3 (De Novo Software). The % of viable cells after dead cell removal in each case was >75%.

atherosclerotic plaques [2] = assay: Effect of treatment on plaque formation; type: in vivo, mice (ApoE null); settings: 200 μg intraperitoneally three times a week for one month, high-fat diet
Experimental: as §2

[3] = test system: monocytes/macrophages isolated from spleen; assay: Peptide binding ex vivo (FACS); type: cell-based, mice; settings: 1 nmol FAM-peptide, 10 min on ice
Experimental: (§4) To produce 4T1 tumors, normal female BALB/c mice were orthotopically injected into the mammary fat pad with 1×10^6 4T1 cells suspended in 100 μL of PBS. All animal experimentation received approval from the Animal Research Committee of University of California, Santa Barbara. Fully grown 4T1 tumors and control spleen were excised from the mice two weeks after inoculation, minced and incubated with tissue digestion cocktail containing 2 mg/mL Collagenase IV (Worthington Biochem Corp) and 1 mg/mL DNAse 1 (Sigma) solution in high glucose DMEM media (Gibco) at 37° C. for 1 hour. Cells were passed through 70 μm nylon mesh cell strainer (BD). CD11b-positive macrophages were isolated using the MACS CD11b-positive microbeads (Miltenyi Biotec).
as §3

[4] = test system: primary cells released from plaques; assay: Peptide binding ex vivo (FACS); type: cell-based, mice (ApoE-null); settings: 1 nmol FAM-peptide, 10 min on ice
Experimental: as §3

4T1 tumors = assay: Treatment of 4T1 tumor mice with peptide, effect on tumor macrophages; type: in vivo, mice (BALB/c); settings: 60 μg daily tail vein injections for 12 days, versus control peptide
Experimental: The effect of LyP-1 peptide treatment of mice with tumors was tested. To produce 4T1 breast cancer tumors, normal female BALB/c mice were orthotopically injected into the mammary fat pad with 1×10^6 4T1 cells suspended in 100 μL of PBS. The mice were treated with daily tail vein injections of 60 μg of LyP-1 or control peptide ([…]; SEQ ID NO:6) for 12 days. […] Cell suspensions were prepared from 4T1 tumors from mice treated with LyP-1 or the control peptide. The tumors were incubated for 1 hour at 37° C. in a tissue digestion cocktail containing 2 mg/mL Collagenase IV (Worthington Biochem Corp) and 1 mg/mL DNAse 1 (Sigma) in high glucose DMEM media (Gibco). The resulting cell suspension was passed through 70 μm nylon mesh cell strainer (BD), and the live cells were double stained for cell surface p32 (rabbit anti-mouse p32, Fogal et al., supra (2008)) and macrophages (rat anti-mouse CD11b, ebioscience) and analyzed by FACS.

[5] = test system: CD11b-positive macrophages from 4T1-tumors; assay: Peptide binding ex vivo (FACS); type: cell-based, mice (BALB/c); settings: 1 nmol FAM-peptide, 10 min on ice
Experimental: as §4, §3

[6] = test system: cells released from plaques; assay: FACS analysis of cells released from plaques after in vivo circulation of FAM-peptides; set-up: species or system mice (ApoE-null); settings: for % of FAM positive cells among cells released from plaques: after 4 hours in vivo circulation
Description: as §1
Cells from plaques and other tissues were released into suspension by 2-hour incubation at 37° C. in a tissue digestion cocktail containing 450 U/mL collagenase type 1 (Worthington Biochemical), 1 mg/mL soybean trypsin inhibitor (Worthington Biochemical), 4.7 U/mL elastase (Worthington Biochemical), 1 mg/mL DNase 1 (Sigma Aldrich) and 0.5% fetal calf serum (FCS). CD11b PE-Cy5 (rat monoclonal, eBioscience) was used to identify monocytes/macrophages. Positive cells were quantified on GUAVA FACS instrument (Millipore) and data were analyzed using FCS Express Version 3 (De Novo Software).
To detect peptide homing to plaques, the distribution of intravenously injected peptides that had been labeled with fluorescein ([…]; FAM) were analyzed. […] Staining with an anti-fluorescein antibody confirmed the presence of LyP-1 in the plaques. For comparison, mice were also injected with a peptide previously shown to home to plaques, CREKA (SEQ ID NO:4) (Peters et al., Proc. Natl. Acad. Sci. USA 106:9815-9819 (2009)). […]

mitochondrial membranes = settings: concentration of 10 μM; cited from earlier work
[7] = test system: porcine iliofemoral arteries; settings: arteries infected with adenoviral vector encoding tk, then exposure to ganciclovir; cited from earlier work
[8] = 100 μL of 1 mM intravenously, 2 hours circulation
[9] = after 4 weeks of treatment, versus control-treated mice

Molecule: FAM-LyP-1: LyP-1 peptide labeled with fluorescein (FAM) ({FAM}-CGNKRTRGC; disulfide (positions not given here); not fully specified (bridges); also: cyclic, kind not given here)
peptide homing to healed dermatitis skin from LyP-1-treated mice (dermatitis; [8]): attenuated LyP-1 homing
peptide homing to inflamed skin from control-treated mice (dermatitis; [8]): robust LyP-1 homing
peptide homing to normal skin (dermatitis; [8]): no LyP-1 homing
accumulation in plaque tissue (fluorescence of aorta sections) (atherosclerotic plaques [1]): extensive accumulation of FAM-LyP-1 inside the plaque tissue

binding to monocytes/macrophages isolated from spleen [3]: little binding
binding to CD11b-positive macrophages from 4T1-tumors [5]: significant binding
Molecule: CGNKRTRGC (disulfide (positions not given here); not fully specified (bridges); also: cyclic, kind not given here) [LyP-1]
percentage of total macrophages (p32-positive and negative) among cells released from plaques (plaque macrophages): lower percentage of total macrophages
binding to bone marrow cells (bone marrow cells): little binding
plaque formation in excised ascending and descending aorta (atherosclerotic plaques [2]): reduced plaque formation
binding to primary cells released from plaques [4]: significant binding
skin condition (dermatitis) (dermatitis; 200 μg intraperitoneally three times a week for one month): significant improvement of their skin condition
cells positive for CD11b and p32 in skin (dermatitis; [9]): smaller numbers of cells positive for CD11b and p32
skin thickness of healed dermatitis skin (dermatitis; [9]): reduced thickness
accumulation in healthy aortas and non-aortic tissues of the atherosclerotic mice (atherosclerotic plaques [1]; intravenous FAM-peptide): no significant accumulation
macrophages positive for cell surface p32 in 4T1 tumors (4T1 tumors): reduced
total number of macrophages (CD11b-positive cells) in 4T1 tumors (4T1 tumors): reduced

Molecule: FAM-CREKA: CREKA peptide labeled with fluorescein (FAM) ({FAM}-CREKA) [reference compound]
accumulation in plaque tissue (fluorescence of aorta sections) (atherosclerotic plaques [1]): essentially confined to the surface of the plaques

Molecule: FAM-ARALPSQRSR: control peptide ARALPSQRSR labeled with FAM ({FAM}-ARALPSQRSR) [reference compound]
accumulation in plaque tissue (fluorescence of aorta sections) (atherosclerotic plaques [1]): did not accumulate in the plaques

Molecule: CREKA
CD11b-positive plaque cells positive for peptide uptake ([6]; 4 hours after intravenous injection): taken up by a small number of CD11b-negative cells
% of FAM positive cells among cells released from plaques [6]: 18.1±4.6%

Molecule: ARALPSQRSR
% of FAM positive cells among cells released from plaques [6]: 7.5±4.1%

Molecule: D(KLAKLAK)2 (KLAKLAKKLAKLAK; D-amino acids)
mitochondrial swelling (mitochondrial membranes): marked mitochondrial swelling

Molecule: Nc1nc(O)c2ncn(COC(CO)CO)c2n1 [ganciclovir]
reduction of neointimal thickening following balloon injury [7]: 50-87%
